Measurements from patent publication US20070185045A1, “Inhibitors of 2-oxoglutarate dioxygenase as gamma globin inducers” (priority 2006, published 2007).

Assays:
[1] = test system: CD34+ bone marrow progenitor cells; conditions: for increase in F-cells over untreated cultures, combination with HU: in combination with 5 μM HU, Phase II only (FIG. 3B)
[2] = test system: γ-globin; experiment: γ-globin mRNA expression by quantitative PCR in K562 cells; assay type: cell-based, human; conditions: 3 days, HPI-6 plus 100 μM HU (FIG. 1A)
Description: For studies utilizing the human erythroleukemia K562 cell line (ATCC), cells were grown and cultured in complete medium (RPM1 1640, 10% fetal calf serum (FCS), 100 U/ml penicillin and 0.1 mg/ml streptomycin) in a humidified incubator at 37° C., 95% air, 5% CO2. HPIs were titrated into duplicate cultures at dosage levels spanning more than 100-fold differences in concentration, and incubated from 24 to 96 hours prior to harvesting and quantitation of F-cells and HbF levels by flow cytometry.
Each PCR run included a standard curve and water blank. In addition, a melt curve was run after completion of each PCR run to assess the specificity of the amplification, γ-globin gene expression was normalized relative to the expression level of 18S ribosomal RNA for each sample.

SMILES	HbF expression together with HU ([1]; 20 μM HPI-1 with HU (FIGS. 5A, 5B))	HbF expression compared to vehicle control (percent F-cells or MFI for HbF) ([1]; 20 μM, triplicate (FIGS. 5A, 5B))	increase in F-cells over untreated cultures, combination with HU [1] [%]	γ-globin expression with added hydroxyurea [2]
O=C(O)CNC(=O)c1nc(Cl)c2ccccc2c1O [HPI-1, N-((1-chloro-4-hydroxy-isoquinoline-3-carbonyl)-amino)-acetic acid]	additive to the effects of HU	increased HbF expression	58	–
O=C(O)CNC(=O)c1ncc2cc(Br)ccc2c1O [HPI-2, [(7-Bromo-4-hydroxy-isoquinoline-3-carbonyl)-amino]-acetic acid]	–	–	29	–
O=C(O)CNC(=O)c1ncc2cc(Sc3ccccc3)ccc2c1O [HPI-6, [(4-Hydroxy-7-phenylsulfanyl-isoquinoline-3-carbonyl)-amino]-acetic acid]	–	–	–	augmented
